Results from PMC11603412, “Anti-hepatocellular carcinoma activities of novel hydrazone derivatives via downregulation of interleukin-6” (RSC Advances, 2024).
“Also recorded” adds a separate entry of the source.

Tests used:
HepG2 cell line = assay: MTT cytotoxicity assay, HepG2; type: cell-based, human; conditions: for IC50: Homo sapiens, HepG2, 24 h; for cytotoxic action against HepG2: MTT assay, in words
Protocol: (§1) The HepG2 cell line was obtained from ATCC (Rockville, MD). Liver mesenchymal stem cells were harvested from liver biopsy according to previously published protocols.[34] Cells were grown in DMEM media with 10% fetal bovine serum (FBS), 100 U per mL penicillin, and […] streptomycin at 37 °C, 5% CO2. The MTT assay kit, which relies on succinate dehydrogenase in living cells' mitochondria to convert the 3-(4,5-dimethylthiazol-2-yl)-2,5-diphenyltetrazolium bromide (MTT) dye to violet formazan crystals, was used to calculate the vitality of individual cells. 6000 cells per well were seeded in the 96-well plate containing, which were then incubated for 24 h. Different concentrations of drug were dissolved in DMEM and then added to the wells to replace the culture medium. The medium was discarded after incubation for 24 h under the same conditions, and 100 μL of MTT (2 mg mL^−1) were added. After 3 h of incubation at 37 °C, the generated formazan crystals generated were dissolved in 50 μL of DMSO. The optical density was then measured using a Stat Fax ELISA plate reader (Romer Labs, Getzersdorf, Austria) at 570 nm with a reference wavelength of 630 nm after incubating the plate at 37 °C for 15 min. As a positive control, the tyrosine kinase inhibitor sorafenib (Bayer, Germany) was employed. DMSO was used as a solvent and its final concentration was less than 0.2%. SI and IC50 were calculated. Triplicates of each in vitro test were performed.[33]

HepG2 cells [1] = assay: Active caspase 3 apoptosis flow cytometry; type: cell-based, human; conditions: for percentage of apoptotic cells compared to the control group: HepG2, active caspase 3, in words; for percentage of apoptotic cells: HepG2, active caspase 3, text value
Protocol: (§2) Cells were harvested, aliquoted up to 1 × 10^6 cells/100 μL in FACS tubes, washed twice with 2 mL of PBS, centrifuged at 300 × g for five minutes, and the buffer was decanted. Reconstituted cells in 100 μL of staining buffer for flow cytometry. HepG2 cells were stained with propidium iodide according to the technique offered via the kit and subsequently performed on the cytometer. The distribution of the cell cycles was estimated and analyzed using a FACScan TM device (BD, Franklin Lakes, NJ). Furthermore, the caspase-3 apoptotic marker levels were investigated by flow cytometry. During the flow cytometry assay, we investigated a population of HepG2 cells to obtain enough cells for statistically significant detection.
FITC active caspase-3 apoptosis kit (BD Biosciences, Franklin Lakes, NJ, USA) was used for detection of active caspase 3 followed by flow cytometry analysis according to the instructions of the kit manufacturer.

[2] = system: Liver mesenchymal stem cells; assay: MTT cytotoxicity assay, liver mesenchymal stem cells (normal cell line); type: cell-based; conditions: 24 h
Protocol: as §1

HepG2 cells [3] = assay: Wound healing (cell migration) assay; type: cell-based, human; conditions: for cell migration of HepG2 cells: 24 h, versus untreated control; for antimigration effect compared to sorafenib: HepG2, 24 h, quantified relative migration
Protocol: The wound healing assay was used to investigate the anti-cell migration/antiproliferation effects of synthesized hydrazone derivatives on the HepG2 cell line. In DMEM medium supplemented with 10% fetal bovine serum (FBS), 100 U per mL penicillin, and […] streptomycin, cells were cultured at 37 °C and 5% CO2. After reaching 80% density, the monolayer cells were scratched using a sterile tip and then washed with phosphate buffered saline, pH 7.4. Different hydrazone derivatives were applied to cells, which were then incubated for 24 h at 37 °C and 5% CO2. Finally, an Olympus microscope (Olympus Europa, Hamburg, Germany) was used to take pictures of the wound areas at 0 and 24 h. The relative cell migration was calculated using the following equation:Relative migration = (width0h − width24h)/width0h

Cytochrome C = Cytochrome C sandwich ELISA; type: cell-based; conditions: versus control group
Protocol: Cytochrome C was quantified using a sandwich ELISA kit (Abcam, Cambridge, UK) according to the manufacturer's procedures. After the addition of the TMB substrate and the development of the color, the optical density was measured using a Stat fax microplate reader, USA, at 450 nm.

HepG2 cells [4] = assay: Propidium iodide cell cycle flow cytometry; type: cell-based, human
Protocol: as §2

IL-6 = IL-6 gene expression (RT-PCR); type: cell-based; conditions: normalised to β-actin, versus control group
Protocol: After two rounds of PBS washing, total RNA was extracted using the TRIzol Reagent, and cDNA synthesis was performed using the high-capacity cDNA reverse transcription kit in accordance with the manufacturer's instructions. The qPCR reaction mixture contained so-fast EvaGreen supermix (10 μL), cDNA (2 μL), invitrogen RT-PCR grade water (6 μL), and the primer pair (500 nM; forward primer 5′-CAAATTCGGTACATCCTC-3′, reverse primer 5′-CTGGCTTGTTCCTCACTA-3′). The amplification started with heating 10 min at 95 °C, followed by 40 cycles of 15 s at 95 °C, 20 s at 55 °C and 30 s at 72 °C. The amplification data was then analyzed as previously described previously with normalization to β-actin.[35]

Structure (SMILES)	IC50 (HepG2 cell line)	cytotoxic action against HepG2 (HepG2 cell line)	percentage of apoptotic cells compared to the control group (HepG2 cells [1])	IC50 [2]	cell migration of HepG2 cells (HepG2 cells [3])	antimigration effect compared to sorafenib (HepG2 cells [3])	percentage of apoptotic cells (HepG2 cells [1])	cytochrome C concentration (Cytochrome C)	cells in G2/M phase (HepG2 cells [4])	cells in S-phase (HepG2 cells [4])	IL-6 mRNA expression (IL-6)	cells in the G0/G1 phase (HepG2 cells [4])
NN=C(C1CC1)C1CC1 [Compound 2, dicyclopropylmethylene hydrazone]	94.7 µM	excellent cytotoxic action	increased significantly	> 100 µM	substantially reduced	–	–	–	–	–	–	–
COc1ccc(/C=N\N=C(C2CC2)C2CC2)cc1 [Compound 3a]	48.2 µM	–	–	> 100 µM	–	–	–	–	–	–	–	–
O=[N+]([O-])c1ccc(/C=N\N=C(C2CC2)C2CC2)cc1 [Compound 3b]	> 100 µM	–	–	90.2 µM	–	–	–	–	–	–	–	–
O=C1Nc2ccccc2/C1=N/N=C(C1CC1)C1CC1 [Compound 4, 3-(dicyclopropylmethylene)hydrazone indolin-2-one]	53.7 µM	excellent cytotoxic action	increased significantly	100 µM	substantially reduced	–	–	–	–	–	–	–
Oc1ccccc1/C=N/N=C/c1ccccc1O [Compound 5]	75.8 µM	–	–	> 100 µM	–	–	–	–	–	–	–	–
NC1=NNC2(C(=O)Nc3ccccc32)N1N=C(C1CC1)C1CC1 (centres unmarked) [Compound 7a]	> 100 µM	–	–	> 100 µM	–	–	–	–	–	–	–	–
O=C1Nc2ccccc2C12NN=C(c1ccccc1)N2N=C(C1CC1)C1CC1 (centres unmarked) [Compound 7b]	> 100 µM	–	–	100 µM	–	–	–	–	–	–	–	–
NC1=NNC(c2ccccc2O)N1/N=C\c1ccccc1O (centres unmarked) [Compound 8a]	62.2 µM	excellent cytotoxic action	increased significantly	100 µM	substantially reduced	–	–	–	–	–	–	–
Oc1ccccc1/C=N\N1C(c2ccccc2)=NNC1c1ccccc1O (centres unmarked) [Compound 8b]	> 100 µM	–	–	75.5 µM	–	–	–	–	–	–	–	–
Cc1nc2ccccc2c(=O)n1N=C(C1CC1)C1CC1 [Compound 11, 3-((dicyclopropylmethylene)amino)-2-methylquinazolin-4(3H)-one]	> 100 µM	–	–	> 100 µM	–	–	–	–	–	–	–	–
O=C1C(=O)c2ccccc2C2=C1NNC(C1CC1)(C1CC1)O2 [Compound 13]	61.4 µM	excellent cytotoxic action	increased significantly	85.2 µM	substantially reduced	significant antimigration effect	–	–	–	–	–	–
O=C1CCC(=O)N1N=C(C1CC1)C1CC1 [Compound 16]	23.6 µM	excellent cytotoxic action	increased significantly	76.5 µM	substantially reduced	significant antimigration effect	80%	significant increase; also recorded: increase in cytochrome C greater than sorafenib	1.2%	4.5%	significant (P < 0.001) decrease	–
NC1=CC(=O)NNC1(C1CC1)C1CC1 [Compound 18]	89.5 µM	excellent cytotoxic action	increased significantly	100 µM	substantially reduced	–	–	–	–	–	–	–
Cc1nc2ccccc2c(=O)n1NC(=S)N=C(C1CC1)C1CC1 [Compound 20]	48.6 µM	excellent cytotoxic action	increased significantly	61.5 µM	substantially reduced	significant antimigration effect	–	–	–	–	–	–
CNC(=O)c1cc(Oc2ccc(NC(=O)Nc3ccc(Cl)c(C(F)(F)F)c3)cc2)ccn1 [Sorafenib, reference compound]	25.6 µM	excellent cytotoxic action	increased significantly	100 µM	substantially reduced	–	75%	significant increase	10.68%	4.17%	significant (P < 0.001) decrease	74.93%
